# Test results: article PMC5218480 (PLoS ONE, 2017)
# System: MV-4-11 cells
# Assay: Gene expression microarray analysis (Affymetrix PrimeView) and GSEA
# Assay type: cell-based, human
# Parameters: RFU PODN (11730768_x_at) / Fold change /veh PODN (11730768_x_at) / RFU LINC00158 (11744669_a_at) / Fold change /veh LINC00158 (11744669_a_at) / RFU DUSP10 (11751237_a_at) / Fold change /veh DUSP10 (11751237_a_at) / RFU ID3 (11757404_x_at) / Fold change /veh ID3 (11757404_x_at) / RFU PLEKHG5 (11737974_s_at) / Fold change /veh PLEKHG5 (11737974_s_at) / RFU LRRC4B (11730491_at) / Fold change /veh LRRC4B (11730491_at) / RFU GIMAP4 (11747438_a_at) / Fold change /veh GIMAP4 (11747438_a_at) / RFU KRT8 (11758183_x_at) / Fold change /veh KRT8 (11758183_x_at) / RFU CNN1 (11734310_a_at) / Fold change /veh CNN1 (11734310_a_at) / RFU VPS37D (11726825_at) / Fold change /veh VPS37D (11726825_at) / RFU C10orf10 (11716522_x_at) / Fold change /veh C10orf10 (11716522_x_at) / RFU KIR2DL2 /// KIR2DL4 /// KIR2DL5A /// KIR2DL5B /// KIR2DS1 /// KIR2DS2 /// KIR2DS3 /// KIR2DS4 /// KIR3DL3 /// KIR3DL3 /// KIR3DS1 (11738374_at) / Fold change /veh KIR2DL2 /// KIR2DL4 /// KIR2DL5A /// KIR2DL5B /// KIR2DS1 /// KIR2DS2 /// KIR2DS3 /// KIR2DS4 /// KIR3DL3 /// KIR3DL3 /// KIR3DS1 (11738374_at) / RFU C1QL1 (11718748_at) / Fold change /veh C1QL1 (11718748_at) / RFU TMPRSS4 (11747572_a_at) / Fold change /veh TMPRSS4 (11747572_a_at) / RFU HAMP (11756126_x_at) / Fold change /veh HAMP (11756126_x_at) / RFU RNFT2 (11725882_a_at) / Fold change /veh RNFT2 (11725882_a_at) / RFU NR4A2 (11747474_a_at) / Fold change /veh NR4A2 (11747474_a_at) / RFU ABCC12 (11746883_a_at) / Fold change /veh ABCC12 (11746883_a_at) / RFU TMEM136 (11760407_x_at) / Fold change /veh TMEM136 (11760407_x_at) / RFU CLDN22 /// WWC2 (11732394_at) / Fold change /veh CLDN22 /// WWC2 (11732394_at) / RFU HLA-DPB1 (11760878_x_at) / Fold change /veh HLA-DPB1 (11760878_x_at) / RFU SPINT1 (11716480_a_at) / Fold change /veh SPINT1 (11716480_a_at) / RFU GAP43 (11754022_s_at) / Fold change /veh GAP43 (11754022_s_at) / RFU A4GNT (11735810_at) / Fold change /veh A4GNT (11735810_at) / RFU PRB3 (11715151_x_at) / Fold change /veh PRB3 (11715151_x_at) / RFU TUBB4B (11761932_at) / Fold change /veh TUBB4B (11761932_at) / RFU CAPN14 (11732068_a_at) / Fold change /veh CAPN14 (11732068_a_at) / RFU TMCC2 (11721928_a_at) / Fold change /veh TMCC2 (11721928_a_at) / RFU IRGQ (11745062_a_at) / Fold change /veh IRGQ (11745062_a_at) / RFU FAM174B (11720279_a_at) / Fold change /veh FAM174B (11720279_a_at) / RFU TMPRSS4 (11748680_a_at) / Fold change /veh TMPRSS4 (11748680_a_at) / RFU FAM212B (11763350_a_at) / Fold change /veh FAM212B (11763350_a_at) / RFU PLEKHG5 (11743358_a_at) / Fold change /veh PLEKHG5 (11743358_a_at) / RFU ZSCAN30 (11745921_a_at) / Fold change /veh ZSCAN30 (11745921_a_at) / RFU CMKLR1 (11741424_a_at) / Fold change /veh CMKLR1 (11741424_a_at) / RFU LOC101060620 /// MAPK8IP1 (11723275_at) / Fold change /veh LOC101060620 /// MAPK8IP1 (11723275_at) / RFU SPTSSB (11747773_x_at) / Fold change /veh SPTSSB (11747773_x_at) / RFU PRSS12 (11739890_at) / Fold change /veh PRSS12 (11739890_at) / RFU BIN1 (11741810_x_at) / Fold change /veh BIN1 (11741810_x_at) / RFU WNT11 (11732464_a_at) / Fold change /veh WNT11 (11732464_a_at) / RFU C10orf10 (11716521_a_at) / Fold change /veh C10orf10 (11716521_a_at) / RFU C5orf56 (11738089_at) / Fold change /veh C5orf56 (11738089_at) / RFU CYB561 (11721691_x_at) / Fold change /veh CYB561 (11721691_x_at) / RFU ANKRD19P (11752326_a_at) / Fold change /veh ANKRD19P (11752326_a_at) / RFU OR2T12 /// OR2T33 /// OR2T8 (11738714_s_at) / Fold change /veh OR2T12 /// OR2T33 /// OR2T8 (11738714_s_at) / RFU VCAN (11748164_a_at) / Fold change /veh VCAN (11748164_a_at) / RFU JSRP1 (11732532_at) / Fold change /veh JSRP1 (11732532_at) / RFU KRTAP10-11 (11738290_x_at) / Fold change /veh KRTAP10-11 (11738290_x_at) / RFU MYO3A (11730013_a_at) / Fold change /veh MYO3A (11730013_a_at) / RFU EBF3 (11725865_a_at) / Fold change /veh EBF3 (11725865_a_at) / RFU CAMK2N1 (11719241_x_at) / Fold change /veh CAMK2N1 (11719241_x_at) / RFU C5orf56 (11738088_a_at) / Fold change /veh C5orf56 (11738088_a_at) / RFU OLFML3 (11715873_a_at) / Fold change /veh OLFML3 (11715873_a_at) / RFU LOC100653217 /// NTM (11731650_a_at) / Fold change /veh LOC100653217 /// NTM (11731650_a_at) / RFU MAPK11 (11762145_a_at) / Fold change /veh MAPK11 (11762145_a_at) / RFU FIZ1 (11724087_x_at) / Fold change /veh FIZ1 (11724087_x_at) / RFU OASL (11726364_x_at) / Fold change /veh OASL (11726364_x_at) / RFU SOX15 (11748057_x_at) / Fold change /veh SOX15 (11748057_x_at) / RFU CD79A (11719716_a_at) / Fold change /veh CD79A (11719716_a_at) / RFU HIST1H1D (11736915_at) / Fold change /veh HIST1H1D (11736915_at) / RFU CASKIN2 (11723855_a_at) / Fold change /veh CASKIN2 (11723855_a_at) / RFU LOC730098 (11760151_x_at) / Fold change /veh LOC730098 (11760151_x_at) / RFU OR4N2 (11742367_at) / Fold change /veh OR4N2 (11742367_at) / RFU PRRT2 (11749266_a_at) / Fold change /veh PRRT2 (11749266_a_at) / RFU SNX32 (11753110_a_at) / Fold change /veh SNX32 (11753110_a_at) / RFU CDHR5 (11726645_a_at) / Fold change /veh CDHR5 (11726645_a_at) / RFU RCAN1 (11760418_a_at) / Fold change /veh RCAN1 (11760418_a_at) / RFU FAM167A (11723789_a_at) / Fold change /veh FAM167A (11723789_a_at) / RFU FAM26E (11764081_at) / Fold change /veh FAM26E (11764081_at) / RFU ISYNA1 (11749810_s_at) / Fold change /veh ISYNA1 (11749810_s_at) / RFU ACY1 (11761880_at) / Fold change /veh ACY1 (11761880_at) / RFU 11764098_at / Fold change /veh 11764098_at / RFU SAMD14 (11745864_x_at) / Fold change /veh SAMD14 (11745864_x_at) / RFU NPB (11741838_a_at) / Fold change /veh NPB (11741838_a_at) / RFU TMPRSS6 (11731388_a_at) / Fold change /veh TMPRSS6 (11731388_a_at) / RFU KRTAP10-2 (11738614_at) / Fold change /veh KRTAP10-2 (11738614_at) / RFU ARHGAP8 /// PRR5-ARHGAP8 (11727945_x_at) / Fold change /veh ARHGAP8 /// PRR5-ARHGAP8 (11727945_x_at) / RFU KRTAP5-7 /// NADSYN1 (11734609_at) / Fold change /veh KRTAP5-7 /// NADSYN1 (11734609_at) / RFU RASL12 (11751679_a_at) / Fold change /veh RASL12 (11751679_a_at) / RFU CDKN2B (11736163_a_at) / Fold change /veh CDKN2B (11736163_a_at) / RFU PRF1 (11729649_at) / Fold change /veh PRF1 (11729649_at) / RFU, ZNF638 /// ZNF638-IT1 / Fold change vs veh, ZNF638 /// ZNF638-IT1 / RFU, PANK3 / Fold change vs veh, PANK3 / RFU, SH3YL1 / Fold change vs veh, SH3YL1 / RFU, ZEB2 / Fold change vs veh, ZEB2 / RFU, NRIP1 / Fold change vs veh, NRIP1 / RFU, PTTG1IP / Fold change vs veh, PTTG1IP / RFU, CAPN2 / Fold change vs veh, CAPN2 / RFU, MED14 / Fold change vs veh, MED14 / RFU, SNORA58 / Fold change vs veh, SNORA58 / RFU, C1orf63 / Fold change vs veh, C1orf63 / RFU, LRRFIP1 / Fold change vs veh, LRRFIP1 / RFU, NDUFAF7 / Fold change vs veh, NDUFAF7 / RFU, SLC12A2 / Fold change vs veh, SLC12A2 / RFU, IBTK / Fold change vs veh, IBTK / RFU, ESF1 / Fold change vs veh, ESF1 / Fold change vs veh, TMEM50B / RFU, TAOK1 / Fold change vs veh, TAOK1 / RFU, ACBD3 / Fold change vs veh, ACBD3 / RFU, TMA16 / Fold change vs veh, TMA16 / RFU, RWDD3 / Fold change vs veh, RWDD3 / RFU, BCAT1 / Fold change vs veh, BCAT1 / RFU, EDEM3 / Fold change vs veh, EDEM3 / RFU, TMEM33 / Fold change vs veh, TMEM33 / RFU, WDR75 / Fold change vs veh, WDR75 / RFU, AHCTF1 / Fold change vs veh, AHCTF1 / RFU, TFRC / Fold change vs veh, TFRC / RFU, ZDHHC17 / Fold change vs veh, ZDHHC17 / RFU, NOM1 / Fold change vs veh, NOM1 / RFU, ARL8B / Fold change vs veh, ARL8B / RFU, ZBTB11 / Fold change vs veh, ZBTB11 / RFU, TAMM41 / Fold change vs veh, TAMM41 / RFU, KIAA1704 /// LOC100996395 / Fold change vs veh, KIAA1704 /// LOC100996395 / RFU, ING1 / Fold change vs veh, ING1 / RFU, TRMT61B / Fold change vs veh, TRMT61B / RFU, FUBP3 / Fold change vs veh, FUBP3 / RFU, TP53 / Fold change vs veh, TP53 / RFU, TNKS2 / Fold change vs veh, TNKS2 / RFU, ZFP14 / Fold change vs veh, ZFP14 / RFU, ACTR2 / Fold change vs veh, ACTR2 / RFU, PPP3R1 / Fold change vs veh, PPP3R1 / RFU, PIK3R1 / Fold change vs veh, PIK3R1 / RFU, HNRNPA1 / Fold change vs veh, HNRNPA1 / RFU, RNF170 / Fold change vs veh, RNF170 / RFU, ZNF28 / Fold change vs veh, ZNF28 / RFU, RNGTT / Fold change vs veh, RNGTT / RFU, OGT / Fold change vs veh, OGT / RFU, BRD1 / Fold change vs veh, BRD1 / RFU, MARS / Fold change vs veh, MARS / RFU, ZNF655 / Fold change vs veh, ZNF655 / RFU, FAHD1 / Fold change vs veh, FAHD1 / RFU, BDP1 / Fold change vs veh, BDP1 / RFU, LRRCC1 / Fold change vs veh, LRRCC1 / RFU, ARID1A / Fold change vs veh, ARID1A / RFU, ZNF146 / Fold change vs veh, ZNF146 / RFU, ZNF330 / Fold change vs veh, ZNF330 / RFU, GPN3 / Fold change vs veh, GPN3 / RFU, C9orf123 / Fold change vs veh, C9orf123 / RFU, N4BP2L2 / Fold change vs veh, N4BP2L2 / RFU, ARFIP1 / Fold change vs veh, ARFIP1 / RFU, FAM179B / Fold change vs veh, FAM179B / RFU, BCL10 / Fold change vs veh, BCL10 / RFU, UHRF1BP1L / Fold change vs veh, UHRF1BP1L / RFU, BET1 / Fold change vs veh, BET1 / RFU, CNOT2 / Fold change vs veh, CNOT2 / RFU, ZNF268 / Fold change vs veh, ZNF268 / Fold change vs veh, ZNF507 / RFU, DGCR2 / Fold change vs veh, DGCR2 / RFU, WDSUB1 / Fold change vs veh, WDSUB1 / Fold change vs veh, HSP90B1 /// MIR3652 / RFU, ADSS / Fold change vs veh, ADSS / RFU, GK / Fold change vs veh, GK / RFU, ZNF148 / Fold change vs veh, ZNF148 / RFU, TAF9 / Fold change vs veh, TAF9 / RFU, SLC1A5 / Fold change vs veh, SLC1A5 / RFU, SLMO2 / Fold change vs veh, SLMO2 / RFU, ABCC4 / Fold change vs veh, ABCC4 / RFU, LOC101060439 /// RAP1B / Fold change vs veh, LOC101060439 /// RAP1B / RFU, RFX7 / Fold change vs veh, RFX7 / RFU, GTPBP10 / Fold change vs veh, GTPBP10 / RFU, CNEP1R1 / Fold change vs veh, CNEP1R1 / RFU, BIVM-ERCC5 /// ERCC5 / Fold change vs veh, BIVM-ERCC5 /// ERCC5 / RFU, ILF3 / Fold change vs veh, ILF3 / RFU 11762660_at / Fold change /veh 11762660_at / RFU VCAN (11757783_s_at) / Fold change /veh VCAN (11757783_s_at) / RFU DDX43 (11728927_at) / Fold change /veh DDX43 (11728927_at) / RFU KRT8 (11758188_x_at) / Fold change /veh KRT8 (11758188_x_at) / RFU NKD1 (11759106_at) / Fold change /veh NKD1 (11759106_at) / RFU SRD5A1 (11742802_a_at) / Fold change /veh SRD5A1 (11742802_a_at) / RFU TPSAB1 /// TPSB2 (11721975_s_at) / Fold change /veh TPSAB1 /// TPSB2 (11721975_s_at) / RFU GSTM3 (11746129_a_at) / Fold change /veh GSTM3 (11746129_a_at) / RFU IL23R (11737362_x_at) / Fold change /veh IL23R (11737362_x_at) / RFU TMEM51 (11727254_a_at) / Fold change /veh TMEM51 (11727254_a_at) / RFU PIWIL2 (11732686_x_at) / Fold change /veh PIWIL2 (11732686_x_at) / RFU ORM1 (11744905_x_at) / Fold change /veh ORM1 (11744905_x_at) / RFU CCDC152 (11743942_at) / Fold change /veh CCDC152 (11743942_at) / RFU ECM1 (11717891_a_at) / Fold change /veh ECM1 (11717891_a_at) / RFU IL23R (11748794_a_at) / Fold change /veh IL23R (11748794_a_at) / RFU TNFAIP8L3 (11732012_x_at) / Fold change /veh TNFAIP8L3 (11732012_x_at) / RFU MBOAT4 (11741988_at) / Fold change /veh MBOAT4 (11741988_at) / RFU 11764193_at / Fold change /veh 11764193_at / RFU TMEM53 (11763286_at) / Fold change /veh TMEM53 (11763286_at) / RFU MAGEB2 (11727129_at) / Fold change /veh MAGEB2 (11727129_at) / RFU TMEM200A (11744735_a_at) / Fold change /veh TMEM200A (11744735_a_at) / RFU CCDC152 (11751479_a_at) / Fold change /veh CCDC152 (11751479_a_at) / RFU FAM211A (11726209_a_at) / Fold change /veh FAM211A (11726209_a_at) / RFU RGS16 (11746705_a_at) / Fold change /veh RGS16 (11746705_a_at) / RFU VCAN (11755009_s_at) / Fold change /veh VCAN (11755009_s_at) / RFU RHOB (11743442_s_at) / Fold change /veh RHOB (11743442_s_at) / RFU RGS16 (11720943_a_at) / Fold change /veh RGS16 (11720943_a_at) / RFU RGS16 (11720944_at) / Fold change /veh RGS16 (11720944_at) / RFU, VPS4B / Fold change vs veh, VPS4B / RFU, CREB1 / Fold change vs veh, CREB1 / RFU, DNAJC13 / Fold change vs veh, DNAJC13 / RFU, GNAQ / Fold change vs veh, GNAQ / RFU, CDK5R1 / Fold change vs veh, CDK5R1 / RFU, ZRANB3 / Fold change vs veh, ZRANB3 / RFU, CUL4A / Fold change vs veh, CUL4A / RFU, CCNY / Fold change vs veh, CCNY / RFU, UFL1 / Fold change vs veh, UFL1 / RFU, COG3 / Fold change vs veh, COG3 / RFU, DIAPH2 / Fold change vs veh, DIAPH2 / RFU, SKA2 / Fold change vs veh, SKA2 / RFU, AFF3 / Fold change vs veh, AFF3 / RFU, LMF1 / Fold change vs veh, LMF1 / RFU, IPO11 / Fold change vs veh, IPO11 / RFU, DFFB / Fold change vs veh, DFFB / RFU, FOXP1 / Fold change vs veh, FOXP1 / RFU, CARD8 / Fold change vs veh, CARD8 / RFU, STRN3 / Fold change vs veh, STRN3 / RFU, ADK / Fold change vs veh, ADK / RFU, RASSF2 / Fold change vs veh, RASSF2 / RFU, WIPF1 / Fold change vs veh, WIPF1 / RFU, LARP1B / Fold change vs veh, LARP1B / RFU, RASA1 / Fold change vs veh, RASA1 / RFU, RB1 / Fold change vs veh, RB1 / RFU, PPFIA1 / Fold change vs veh, PPFIA1 / RFU, MAT2A / Fold change vs veh, MAT2A / RFU, CCT5 / Fold change vs veh, CCT5 / RFU, WDR92 / Fold change vs veh, WDR92 / RFU, CUX1 / Fold change vs veh, CUX1 / RFU, TTC7A / Fold change vs veh, TTC7A / RFU, TMEM135 / Fold change vs veh, TMEM135 / RFU, DEPTOR / Fold change vs veh, DEPTOR / RFU, CPM / Fold change vs veh, CPM / RFU, DNAJB6 / Fold change vs veh, DNAJB6 / RFU, CACNA2D3 / Fold change vs veh, CACNA2D3 / RFU, DTX4 / Fold change vs veh, DTX4 / RFU, TFCP2 / Fold change vs veh, TFCP2 / RFU, GMCL1 /// GMCL1P1 / Fold change vs veh, GMCL1 /// GMCL1P1 / RFU, AEBP2 / Fold change vs veh, AEBP2 / RFU, SNHG1 /// SNORD22 /// SNORD25 /// SNORD26 /// SNORD27 /// SNORD28 /// SNORD29 /// SNORD31 / Fold change vs veh, SNHG1 /// SNORD22 /// SNORD25 /// SNORD26 /// SNORD27 /// SNORD28 /// SNORD29 /// SNORD31 / Fold change (Aza/veh), C12orf56 (ProbeSet 11735607_a_at) / Fold change (ACY-1035/veh), C12orf56 (ProbeSet 11735607_a_at) / Fold change (Aza/veh), FGFR1OP (ProbeSet 11751329_s_at) / Fold change (ACY-1035/veh), FGFR1OP (ProbeSet 11751329_s_at) / Fold change (Aza/veh), VPS36 (ProbeSet 11739960_a_at) / Fold change (ACY-1035/veh), VPS36 (ProbeSet 11739960_a_at) / RFU SYPL1 (11715823_x_at) / Fold change /veh SYPL1 (11715823_x_at) / RFU IGFBP7 (11715501_s_at) / Fold change /veh IGFBP7 (11715501_s_at) / RFU REEP3 (11722064_at) / Fold change /veh REEP3 (11722064_at) / RFU IGLL1 (11728026_x_at) / Fold change /veh IGLL1 (11728026_x_at): dose or concentration left out as unconfirmed
# Details: MV-4-11 cells, 48 hours
smiles,measurement,value
Nc1ncn([C@@H]2O[C@H](CO)[C@@H](O)[C@H]2O)c(=O)n1 [azacitidine],RFU LOC730098 (11760151_x_at),36.57 RFU
